Test results as given in PubChem BioAssay (NCI).
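Values below derive from 48-hour exposures of cells grown in 96-well plates, with endpoints linearly interpolated between the two concentrations bracketing the appropriate inhibition level. At the TGI there is no net growth.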

Key:
Assay in all cases: NCI anticancer screen, dose series, 48 h
786-0 renal = test system: 786-0 renal
A498 renal = test system: A498 renal
A549 NSCLC = test system: A549 NSCLC
ACHN renal = test system: ACHN renal
BT-549 breast = test system: BT-549 breast
CAKI-1 renal = test system: CAKI-1 renal
CCRF-CEM leukemia = test system: CCRF-CEM leukemia
COLO 205 colon = test system: COLO 205 colon
DU-145 prostate = test system: DU-145 prostate
EKVX NSCLC = test system: EKVX NSCLC
HCT-116 colon = test system: HCT-116 colon
HCT-15 colon = test system: HCT-15 colon
HL-60(TB) leukemia = test system: HL-60(TB) leukemia
HOP-62 NSCLC = test system: HOP-62 NSCLC
HOP-92 NSCLC = test system: HOP-92 NSCLC
HS 578T breast = test system: HS 578T breast
HT29 colon = test system: HT29 colon
IGROV1 ovarian = test system: IGROV1 ovarian
K-562 leukemia = test system: K-562 leukemia
KM12 colon = test system: KM12 colon
LOX IMVI melanoma = test system: LOX IMVI melanoma
M14 melanoma = test system: M14 melanoma
MALME-3M melanoma = test system: MALME-3M melanoma
MDA-MB-231 breast = test system: MDA-MB-231 breast
MDA-MB-435 = test system: MDA-MB-435
MDA-N = test system: MDA-N
MOLT-4 leukemia = test system: MOLT-4 leukemia
NCI-H226 lung = test system: NCI-H226 lung
NCI-H23 lung = test system: NCI-H23 lung
NCI-H460 lung = test system: NCI-H460 lung
NCI-H522 lung = test system: NCI-H522 lung
NCI/ADR-RES ovarian = test system: NCI/ADR-RES ovarian
OVCAR-3 ovarian = test system: OVCAR-3 ovarian
OVCAR-5 ovarian = test system: OVCAR-5 ovarian
OVCAR-8 ovarian = test system: OVCAR-8 ovarian
PC-3 prostate = test system: PC-3 prostate
RPMI-8226 leukemia = test system: RPMI-8226 leukemia
RXF 393 renal = test system: RXF 393 renal
SF-268 CNS = test system: SF-268 CNS
SF-295 CNS = test system: SF-295 CNS
SF-539 CNS = test system: SF-539 CNS
SK-MEL-2 melanoma = test system: SK-MEL-2 melanoma
SK-MEL-28 melanoma = test system: SK-MEL-28 melanoma
SK-MEL-5 melanoma = test system: SK-MEL-5 melanoma
SK-OV-3 ovarian = test system: SK-OV-3 ovarian
SN12C renal = test system: SN12C renal
SNB-19 CNS = test system: SNB-19 CNS
SNB-75 CNS = test system: SNB-75 CNS
SW-620 colon = test system: SW-620 colon
T-47D breast = test system: T-47D breast
TK-10 renal = test system: TK-10 renal
U251 CNS = test system: U251 CNS
UACC-257 melanoma = test system: UACC-257 melanoma
UACC-62 melanoma = test system: UACC-62 melanoma
UO-31 renal = test system: UO-31 renal
OVCAR-4 ovarian = test system: OVCAR-4 ovarian
SR leukemia = test system: SR leukemia

Question: How did the TGI (786-0 renal) turn out when `COC(=O)Cc1c(C2=Nc3ccccc3C2(O)CC(=O)OC)[nH]c2ccccc12` (stereo not given) was run?
Answer: > 100 µM

Question: What about the TGI (A498 renal) of the same compound?
Answer: > 100 µM

Question: And the TGI (A549 NSCLC)?
Answer: > 100 µM

Question: What about the TGI (ACHN renal) of the same compound?
Answer: > 100 µM

Question: What about the TGI (BT-549 breast) of the same compound?
Answer: > 100 µM

Question: What about the TGI (CAKI-1 renal) of the same compound?
Answer: 71 µM

Question: And the TGI (CCRF-CEM leukemia)?
Answer: 54.5 µM

Question: And the TGI (COLO 205 colon)?
Answer: 52.3 µM

Question: What about the TGI (DU-145 prostate) of the same compound?
Answer: > 100 µM

Question: And the TGI (EKVX NSCLC)?
Answer: > 100 µM

Question: And the TGI (HCT-116 colon)?
Answer: > 100 µM

Question: What about the TGI (HCT-15 colon) of the same compound?
Answer: > 100 µM

Question: What about the TGI (HL-60(TB) leukemia) of the same compound?
Answer: 62.7 µM

Question: What about the TGI (HOP-62 NSCLC) of the same compound?
Answer: > 100 µM

Question: What about the TGI (HOP-92 NSCLC) of the same compound?
Answer: > 100 µM

Question: What about the TGI (HS 578T breast) of the same compound?
Answer: > 100 µM

Question: What about the TGI (HT29 colon) of the same compound?
Answer: > 100 µM

Question: What about the TGI (IGROV1 ovarian) of the same compound?
Answer: > 100 µM

Question: What about the TGI (K-562 leukemia) of the same compound?
Answer: > 100 µM

Question: And the TGI (KM12 colon)?
Answer: > 100 µM

Question: And the TGI (LOX IMVI melanoma)?
Answer: > 100 µM

Question: What about the TGI (M14 melanoma) of the same compound?
Answer: > 100 µM

Question: And the TGI (MALME-3M melanoma)?
Answer: > 100 µM

Question: What about the TGI (MDA-MB-231 breast) of the same compound?
Answer: > 100 µM

Question: What about the TGI (MDA-MB-435) of the same compound?
Answer: > 100 µM

Question: And the TGI (MDA-N)?
Answer: > 100 µM

Question: And the TGI (MOLT-4 leukemia)?
Answer: 71.2 µM

Question: What about the TGI (NCI-H226 lung) of the same compound?
Answer: > 100 µM

Question: And the TGI (NCI-H23 lung)?
Answer: > 100 µM

Question: What about the TGI (NCI-H460 lung) of the same compound?
Answer: > 100 µM

Question: And the TGI (NCI-H522 lung)?
Answer: > 100 µM

Question: What about the TGI (NCI/ADR-RES ovarian) of the same compound?
Answer: > 100 µM

Question: And the TGI (OVCAR-3 ovarian)?
Answer: > 100 µM

Question: What about the TGI (OVCAR-5 ovarian) of the same compound?
Answer: > 100 µM

Question: And the TGI (OVCAR-8 ovarian)?
Answer: > 100 µM

Question: And the TGI (PC-3 prostate)?
Answer: > 100 µM

Question: What about the TGI (RPMI-8226 leukemia) of the same compound?
Answer: > 100 µM

Question: What about the TGI (RXF 393 renal) of the same compound?
Answer: > 100 µM

Question: And the TGI (SF-268 CNS)?
Answer: > 100 µM

Question: And the TGI (SF-295 CNS)?
Answer: > 100 µM

Question: And the TGI (SF-539 CNS)?
Answer: 85.5 µM

Question: And the TGI (SK-MEL-2 melanoma)?
Answer: > 100 µM

Question: What about the TGI (SK-MEL-28 melanoma) of the same compound?
Answer: > 100 µM

Question: And the TGI (SK-MEL-5 melanoma)?
Answer: > 100 µM

Question: What about the TGI (SK-OV-3 ovarian) of the same compound?
Answer: > 100 µM

Question: And the TGI (SN12C renal)?
Answer: > 100 µM

Question: What about the TGI (SNB-19 CNS) of the same compound?
Answer: > 100 µM

Question: What about the TGI (SNB-75 CNS) of the same compound?
Answer: > 100 µM

Question: And the TGI (SW-620 colon)?
Answer: > 100 µM

Question: And the TGI (T-47D breast)?
Answer: > 100 µM

Question: And the TGI (TK-10 renal)?
Answer: > 100 µM

Question: What about the TGI (U251 CNS) of the same compound?
Answer: > 100 µM

Question: And the TGI (UACC-257 melanoma)?
Answer: > 100 µM

Question: What about the TGI (UACC-62 melanoma) of the same compound?
Answer: > 100 µM

Question: And the TGI (UO-31 renal)?
Answer: > 100 µM

Question: How did the TGI (A549 NSCLC) turn out when `O=C1C=CC(=O)c2c(O)c(N3CCSCC3)c(Cl)c(O)c21` was run?
Answer: 1.79 µM

Question: And the TGI (ACHN renal)?
Answer: 1.48 µM

Question: What about the TGI (CAKI-1 renal) of the same compound?
Answer: 1.73 µM

Question: What about the TGI (DU-145 prostate) of the same compound?
Answer: 2.02 µM

Question: What about the TGI (HCT-116 colon) of the same compound?
Answer: 1.03 µM

Question: What about the TGI (HOP-92 NSCLC) of the same compound?
Answer: 2.21 µM

Question: And the TGI (HS 578T breast)?
Answer: 2.18 µM

Question: What about the TGI (HT29 colon) of the same compound?
Answer: 1.47 µM

Question: What about the TGI (IGROV1 ovarian) of the same compound?
Answer: 2 µM

Question: And the TGI (KM12 colon)?
Answer: 1.38 µM

Question: What about the TGI (LOX IMVI melanoma) of the same compound?
Answer: 0.362 µM

Question: And the TGI (M14 melanoma)?
Answer: 1.05 µM

Question: What about the TGI (MALME-3M melanoma) of the same compound?
Answer: 1.34 µM

Question: And the TGI (MDA-MB-231 breast)?
Answer: 1.03 µM

Question: And the TGI (MDA-MB-435)?
Answer: 1.94 µM

Question: And the TGI (MDA-N)?
Answer: 1.48 µM

Question: What about the TGI (MOLT-4 leukemia) of the same compound?
Answer: 3.82 µM

Question: What about the TGI (NCI-H226 lung) of the same compound?
Answer: 1.82 µM

Question: And the TGI (NCI-H23 lung)?
Answer: 0.689 µM

Question: And the TGI (NCI-H460 lung)?
Answer: 1.71 µM

Question: What about the TGI (NCI-H522 lung) of the same compound?
Answer: 1.29 µM

Question: And the TGI (OVCAR-4 ovarian)?
Answer: 1.77 µM

Question: And the TGI (RXF 393 renal)?
Answer: 0.781 µM

Question: And the TGI (SF-268 CNS)?
Answer: 1.74 µM

Question: What about the TGI (SK-MEL-2 melanoma) of the same compound?
Answer: 0.603 µM

Question: And the TGI (SK-MEL-28 melanoma)?
Answer: 2.16 µM

Question: And the TGI (SK-MEL-5 melanoma)?
Answer: 1.69 µM

Question: What about the TGI (SK-OV-3 ovarian) of the same compound?
Answer: 4 µM

Question: What about the TGI (SR leukemia) of the same compound?
Answer: 1.24 µM

Question: And the TGI (SW-620 colon)?
Answer: 0.548 µM

Question: And the TGI (T-47D breast)?
Answer: 2.29 µM

Question: What about the TGI (TK-10 renal) of the same compound?
Answer: 1.56 µM

Question: What about the TGI (UACC-257 melanoma) of the same compound?
Answer: 2.88 µM

Question: And the TGI (UACC-62 melanoma)?
Answer: 1.75 µM

Question: What about the TGI (UO-31 renal) of the same compound?
Answer: 1.81 µM
